Data from article PMC3591457, “Biodistribution and Elimination Study of Fluorine-18 Labeled N^ε-Carboxymethyl-Lysine following Intragastric and Intravenous Administration” (PLoS ONE, 2013).

Assays:
RAW264.7 cells = assay: Cell uptake of ^18F-CML and native CML in RAW264.7 cells; format: cell-based; conditions: incubation 2 hours
Experimental: (§1) To compare the different bioactivities of CML and ^18F-CML, two cell lines were evaluated for their capacity to take up native CML and the fluorobenzoylated derivative ^18F-CML. RAW264.7 macrophages and HepG2 liver cells were cultured in DMEM/LOWGLUCOSE, supplemented with 10% fetal bovine serum (FBS), 4.0 mmol/L L-glutamine, 110 mg/L sodium pyruvate, 100 U/mL penicillin, and 100 mg/L streptomycin at 37°C and 5% CO2.
(§2) For ^18F-CML cell uptake studies, RAW264.7 cells and HepG2 cells were seeded into 24-well plates at a density of 4×10^5 cells per well. Radio-tracer ^18F-CML (0.5 µCi/well, 3 µmol/mL) was incubated in a 37°C water bath for 15, 30, 60, and 120 min. At each time point the cells were washed 3 times with phosphate-buffered saline (PBS). The supernatant, washing-up liquid (unbound activity) and the pellet (cell-bound activity) were transferred to new tubes. Triplicates of the counting tubes containing supernatant and cell pellet were counted individually using a gamma counter for 1 min. For the blocking experiment, the uptake was carried out in the presence of the non-radioactive CML(10 µmol/mL) and processed similarly as described above. The uptake (%) of radio-tracer into the cell was determined using a gamma counter according to the following equation: [drawing 1]
(§3) For CML cell uptake ratio studies, unaltered CML (10 µmol/mL) was added to RAW264.7 and HepG2 cell pellets individually. The total proteins of each cell line were initially extracted from the lysates of 4×10^5 cells. […] The supernatants were purified and detected usingby the method described by Drusch et al., which uses an RP-HPLC method with an ortho-phthaldialdehyde (OPA)-derivatisation and fluorescence detection suited for automation. The HPLC analysis method used a 250 mm×4.6 mm C18 column (GROM-SIL 100 ODS-0 AB, Herrenberg, Germany) and detected the fluorescence excitation at 340 nm and emission at 455 nm. The peak identification of CML was confirmed by the retention time and standard addition and was quantified using an external standard. The amount of CML was calculated and expressed as a percentage.

HepG2 cells = assay: Cell uptake of ^18F-CML and native CML in HepG2 cells; format: cell-based; conditions: incubation 2 hours
Experimental: as §1, §2, §3

Structure (SMILES): NC(CCCCNCC(=O)O)C(=O)O (stereo not shown) [CML, N^ε-carboxymethyl-lysine]
- Uptake ratio of unaltered CML, amount less than ^18F-CML (RAW264.7 cells; P<0.01): 0.3%
- Uptake of unaltered CML (RAW264.7 cells; n=3): 8.2 µg/mg of cell protein
- Uptake ratio of unaltered CML, amount less than ^18F-CML (HepG2 cells; P<0.01): 0.2%
- Uptake of unaltered CML (HepG2 cells; n=3): 6.3 µg/mg of cell protein
